Values after ≈ are worked out from the molar mass of the structure shown. Values joined by “and” are separate entries in the source; they are usually repeats but may differ in a detail not shown here. Identical values can stand only once. “Also recorded” adds a separate entry of the source.
Columns and labels:
9 L brain tumors [1] = test: Short-term (17 days) 9 L brain tumor volume after HSV-TK producer cell implantation and GCV; assay type: in vivo, Fischer 344 rats
Protocol: (§1) Tumor Cell and Producer Cell Implantation. The 9 L cells were maintained in Dulbecco's modified Eagle's medium with 10% fetal bovine serum, penicillin G (100 units/ml), streptomycin sulfate (100 μg/ml). Brain tumors were established in adult female Fischer 344 rats which were housed and handled in accordance with National Institutes of Health guidelines.
(§2) In all studies tumors were implanted by an intracerebral injection of 2×10^5 tumor cells into the region of the right caudate nucleus (3 mm lateral, 1 mm anterior to bregma, 4 mm ventral) (Paxinos, G. & Watson, C. (1987) The Rat Brain in Stereotaxic Coordinates (University Press ***).
Animals in short-term studies underwent a second surgery 3 days after tumor implantation, at which time retroviral producer cells (either 2×10^5 in 4 μl or 2×10^6 in 8 μl, representing an equal, number (1×) or 10 times (10×) the number of injected tumor cells, respectively) were implanted into the established brain tumors and allowed to grow with brain tumor cells for 7 days. Ten days after tumor implantation, subsets of animals were given 0.2 ml intraperitoneal injections of GCV (Syntex, Palo Alto, Calif.) 50 mg/kg once a day for 7 or 14 days. Animals in the short-term experiments were sacrificed after 7 days of GCV administration (17 days after tumor implantation) and then perfused with 4% paraformaldehyde.
Brain Tumor Analysis. Short-term treatment response was determined by comparing individual brain tumor volumes measured by postmortem stereologic study in groups containing a minimum of five animals.
(§3) Long-term results were studied in 90-day survival studies with tumor volumes determined in long-term survivors. Stained brain sections were examined and tumor volumes were quantified by stereologic methods (Gundersen, H. J. G., Bagger, P. & Bendtsen, T. F. (1988) APMIS ***96, 857-881). Tumor volumes were compared by the Mann-Whitney U test. In long-term survival experiments (90 days), animals were observed daily and survival data were analyzed by Kaplan-Meier analysis with the Mantel-Cox statistic.

9 L brain tumors [2] = test: Long-term (90-day) survival of rats with 9 L brain tumors after HSV-TK producer cells and GCV; assay type: in vivo, Fischer 344 rats; conditions: for treated animals surviving 90 days: both long-term trials combined, HSV-TK producer cells plus GCV
Protocol: as §1, §2
Two trials of long-term (90-day) survival were performed. In the first, producer cells (2×10^5), equal to the initial number of tumor cells implanted) were grafted into 3-day-old brain tumors. GCV treatments were started in 12 animals 7 days later (tumor day 10) and continued for 7 days; 8 animals received no GCV. In the second trial, 2×10^5 or 2×10^6 producer cells in 50 μl (representing 1× or 10× the number of injected tumor cells, respectively) were grafted into 3-day-old established brain tumors of 10 animals per group. GCV treatments started 7 days later and were administered for 14 days.
as §3

9 L tumor cells = test: Repeat tumor challenge in long-term survivors; assay type: in vivo, Fischer 344 rats
Description: Repeat Tumor Challenge. Four animals with long-term tumor regression were studied with repeat tumor challenges 90 days after the initial tumor implantation. Animals underwent repeated intracerebral injections of 2×10^5 9 L tumor cells into the left caudate nucleus and injections of 1×10^6 9 L tumor cells into the right flank. Five normal, naive rats received identical injections of 9 L tumor cells. Animals were sacrificed and perfused 17 days later to determine resulting tumor volumes.

9 L brain tumors [3] = conditions: no producer cell injections; Barba et al. 1993; cited from earlier work
[4] = tested on: C6 glial tumor cells infected with STK, NTK or μTK vector; test: Survival of C6 glioma clones carrying HSV-TK vectors in increasing concentrations of acyclovir; assay type: cell-based; conditions: C6 clones infected with each vector (STK, NTK, μTK); acyclovir 0.1 to 100 μg/ml for 3 days
Protocol: Murine retroviral vectors carrying the HSV-TK gene, the STK, NTK, and μTK vectors, were obtained from Dr. F. L. Moolten. The plasmid forms of the vectors were transfected into −2 cells (Mann et al., Cell 33:153-159 (1983)); selection with 1 mg/ml of the neomycin analog G418 permitted the isolation of clone producer lines that yielded viruses capable of transducing G418 resistance and HSV-TK activity. Virus titers were determined by the limiting dilution method and found to be greater than 50 pfu/cell. As expected with −2 cells, no replication-competent virus was detected.
The replicative defective viruses produced by −2 cells were used to infect C6 glial tumor cells. The cells to be infected were grown in DME plus 10% fetal bovine serum plus 4 μg/ml of polybrene and were grown to about 60-70% confluence in a T75 flask or about 2×10^6 cells/ml. The cells were infected with about 100 pfu/cell of virus. The infected cells were cultured for 24 hours with Dulbecco's Medium containing 10% fetal bovine serum and antibiotics; afterwards they were exposed to 1 mg of G418/ml to select for cells that expressed vector-derived genes.
Clones resulting from infection of C6 glial cells with each of the vectors were exposed to acyclovir at concentrations ranging from 0.1 to 100 μg/ml for 3 days. Each vector rendered the glial cells sensitive to acyclovir.

cells carrying HSV-TK = test: 3-day cytotoxicity assay, cells carrying HSV-TK; assay type: cell-based; conditions: 72 h, read-out: inhibitory dose for 50% of the cells
Protocol: (§4) Similar results were obtained in a 3-day cytotoxicity assay; the inhibitory dose of acyclovir for 50% of the cells lacking the HSV-TK gene was greater than […] for cells carrying HSV-TK.

[5] = tested on: cells lacking the HSV-TK gene; test: 3-day cytotoxicity assay, cells lacking the HSV-TK gene; assay type: cell-based; conditions: 72 h, read-out: inhibitory dose for 50% of the cells
Protocol: as §4

[6] = HSV-TK producer cells plus GCV, 17-day-old tumors

Row | Compound | tumor volume / tumor regression versus rats not treated with GCV (9 L brain tumors [1]; HSV-TK producer cells (1:1 or 10:1) implanted day 3, GCV 50 mg/kg per day i.p. for 7 days, day 17) | treated animals with focal regression of part of the tumor adjacent to unaffected tumor (9 L brain tumors [1]; [6]) | treated animals with unaffected tumors (9 L brain tumors [1]; [6]) | animals alive after 90 days in each experimental group, second trial (9 L brain tumors [2]; 1× or 10× producer cells, 10 animals per group, GCV for 14 days) | treated animals surviving 90 days, first trial (9 L brain tumors [2]; 2×10^5 producer cells, GCV for 7 days from tumor day 10, none of 8 untreated survived longer than 25 days) | tumor volume in the third surviving treated animal, first trial (9 L brain tumors [2]; 90 days) | residual tumor volume in two of the surviving treated animals, first trial (9 L brain tumors [2]; 90 days, small intracerebral cysts) | survival, GCV for 7 versus 14 days (9 L brain tumors [2]; both groups receiving 1× producer cells) | survival, 1× versus 10× producer cells (9 L brain tumors [2]; both groups receiving GCV for 14 days) | treated animals surviving 90 days (9 L brain tumors [2]) | treated animals surviving 90 days (9 L brain tumors [2]; controls 0/8) | survival of treated versus control animals (9 L brain tumors [2]; combined treated groups, Kaplan-Meier, P<0.002) | flank tumor nodules after repeat challenge (9 L tumor cells; 1×10^6 9 L cells into right flank, 17 days, flank tumors in four of five naive rats) | tumor volume at the site of the secondary tumor cell implants (left hemisphere) (9 L tumor cells; 2×10^5 9 L cells, 17 days after repeat challenge, naive animals 129-169) | tumor volume at the site of the initial tumor cell implantation in long-term survivors (9 L tumor cells; four long-term survivors of second trial, 17 days after repeat challenge) | growth of repeat tumor injections in rats surviving 90 days (9 L tumor cells; repeat 9 L injections after HSV-TK producer cells and GCV, tumors grew in naive rats) | tumor regression in animals treated with GCV without producer cell injections (9 L brain tumors [3]) | sensitivity of glial cells to acyclovir (survival, FIG. 2) [4] | IC50 (cells carrying HSV-TK) | IC50 [5]
1 | Nc1nc2c(ncn2COC(CO)CO)c(=O)[nH]1 [GCV, 9-((2-hydroxy-1-(hydroxymethyl)ethoxy)methyl) guanine] | Significant tumor regression; also recorded: significantly smaller | about 50% | about 10% | two | 3 of 12 | 62 mm^3 | < 0.2 mm^3 | no difference | No difference in survival | 22% | 7 of 32 and 7/32 | highly significant difference; also recorded: significant improvement in survival | failed to detect any tumor nodules | < 0.2 mm^3 | 0.6-2.0 mm^3 | rejected repeat tumor injections; also recorded: absence of growth of injected tumor cells; also recorded: inhibition of growth of the injected tumor cells | not seen | – | – | –
2 | Nc1nc2c(ncn2COCCO)c(=O)[nH]1 [acyclovir, 9-((2-hydroxyethoxy)methyl)guanine] | – | – | – | – | – | – | – | – | – | – | – | – | – | – | – | – | – | sensitive | 0.5 µg/mL (≈ 2.22 µM) | > 10 µg/mL

Reference: US6663858B1, “In Vivo gene transfer using implanted retroviral producer cells” (The Regents of the University of California, priority 1991, dated 2003)
